Measured values: BindingDB's records for patent US20260049071 (Beyang Therapeutics Co., 2026)

What was measured:
Assay in all cases: Testing of the Ability of Compounds to Inhibit VEGFR and EGFR Kinase
[1] = molecular target: Epidermal growth factor receptor (Homo sapiens, UniProt P00533)
Description: (§1) This assay directly monitored the ability of compounds to inhibit kinase phosphorylation by measuring non-phosphorylated and phosphorylated substrates in kinase reactions by using Mobility Shift Assays/IMAP™ analysis. Test Protocol and Procedures: Add the kinase and DTT to 1× kinase buffer to form a 2.5× kinase solution; transfer 10 μL of 2.5× kinase solution to a 384-well reaction plate and add 1× kinase buffer to negative control wells. Incubate the plate for 10 min at room temperature; add FAM-labeled peptides, MgCl2, ATP and other reagents to 1× kinase buffer to form a 2.5× substrate solution; transfer 10 μL of the above 2.5× substrate solution to the 384-well reaction plate; incubate the plate at 28° C. for different times,and add 25 μL of stop solution to the 384-well reaction plate to stop the reaction. Read the conversion ratio data on CaliperEZ Reader II.

[2] = molecular target: Vascular endothelial growth factor receptor 1 (Homo sapiens, UniProt P17948)
Sequence of Vascular endothelial growth factor receptor 1 (P17948 whole entry): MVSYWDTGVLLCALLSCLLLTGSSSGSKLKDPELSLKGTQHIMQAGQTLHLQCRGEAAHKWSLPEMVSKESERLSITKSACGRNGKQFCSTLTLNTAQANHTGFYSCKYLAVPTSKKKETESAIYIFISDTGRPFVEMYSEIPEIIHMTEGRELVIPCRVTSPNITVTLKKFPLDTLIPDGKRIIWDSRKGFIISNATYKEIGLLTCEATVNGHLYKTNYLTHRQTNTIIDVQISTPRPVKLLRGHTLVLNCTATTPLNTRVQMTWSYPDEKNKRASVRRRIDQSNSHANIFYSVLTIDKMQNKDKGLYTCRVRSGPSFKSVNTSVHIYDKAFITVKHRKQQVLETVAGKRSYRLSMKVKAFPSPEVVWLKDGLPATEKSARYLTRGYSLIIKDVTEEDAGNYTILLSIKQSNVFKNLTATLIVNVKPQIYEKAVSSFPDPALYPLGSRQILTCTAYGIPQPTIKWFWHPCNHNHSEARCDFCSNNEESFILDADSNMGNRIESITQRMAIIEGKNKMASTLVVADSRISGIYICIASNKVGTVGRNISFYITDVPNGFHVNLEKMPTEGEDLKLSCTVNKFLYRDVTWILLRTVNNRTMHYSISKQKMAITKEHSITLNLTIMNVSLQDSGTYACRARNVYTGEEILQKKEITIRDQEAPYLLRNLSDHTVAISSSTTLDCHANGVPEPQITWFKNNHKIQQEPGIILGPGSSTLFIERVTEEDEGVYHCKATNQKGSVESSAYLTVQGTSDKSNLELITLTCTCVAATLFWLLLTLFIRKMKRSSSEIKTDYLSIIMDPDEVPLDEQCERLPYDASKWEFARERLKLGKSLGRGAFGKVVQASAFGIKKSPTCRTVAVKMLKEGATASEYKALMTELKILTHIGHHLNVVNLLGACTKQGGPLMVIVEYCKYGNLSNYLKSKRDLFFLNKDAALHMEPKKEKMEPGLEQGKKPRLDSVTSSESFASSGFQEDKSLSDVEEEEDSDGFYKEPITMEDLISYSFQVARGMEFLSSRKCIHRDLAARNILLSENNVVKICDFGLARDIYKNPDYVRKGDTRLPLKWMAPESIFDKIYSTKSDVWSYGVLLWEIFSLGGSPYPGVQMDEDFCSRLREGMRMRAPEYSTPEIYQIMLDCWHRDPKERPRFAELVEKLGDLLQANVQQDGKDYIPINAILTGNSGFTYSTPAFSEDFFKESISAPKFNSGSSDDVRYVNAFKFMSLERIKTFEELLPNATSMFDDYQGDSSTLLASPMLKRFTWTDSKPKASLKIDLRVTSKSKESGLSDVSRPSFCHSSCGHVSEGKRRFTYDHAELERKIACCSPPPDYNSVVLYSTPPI
Description: as §1

[3] = molecular target: Vascular endothelial growth factor receptor 3 (Homo sapiens, UniProt P35916)
Sequence of Vascular endothelial growth factor receptor 3 (P35916 whole entry): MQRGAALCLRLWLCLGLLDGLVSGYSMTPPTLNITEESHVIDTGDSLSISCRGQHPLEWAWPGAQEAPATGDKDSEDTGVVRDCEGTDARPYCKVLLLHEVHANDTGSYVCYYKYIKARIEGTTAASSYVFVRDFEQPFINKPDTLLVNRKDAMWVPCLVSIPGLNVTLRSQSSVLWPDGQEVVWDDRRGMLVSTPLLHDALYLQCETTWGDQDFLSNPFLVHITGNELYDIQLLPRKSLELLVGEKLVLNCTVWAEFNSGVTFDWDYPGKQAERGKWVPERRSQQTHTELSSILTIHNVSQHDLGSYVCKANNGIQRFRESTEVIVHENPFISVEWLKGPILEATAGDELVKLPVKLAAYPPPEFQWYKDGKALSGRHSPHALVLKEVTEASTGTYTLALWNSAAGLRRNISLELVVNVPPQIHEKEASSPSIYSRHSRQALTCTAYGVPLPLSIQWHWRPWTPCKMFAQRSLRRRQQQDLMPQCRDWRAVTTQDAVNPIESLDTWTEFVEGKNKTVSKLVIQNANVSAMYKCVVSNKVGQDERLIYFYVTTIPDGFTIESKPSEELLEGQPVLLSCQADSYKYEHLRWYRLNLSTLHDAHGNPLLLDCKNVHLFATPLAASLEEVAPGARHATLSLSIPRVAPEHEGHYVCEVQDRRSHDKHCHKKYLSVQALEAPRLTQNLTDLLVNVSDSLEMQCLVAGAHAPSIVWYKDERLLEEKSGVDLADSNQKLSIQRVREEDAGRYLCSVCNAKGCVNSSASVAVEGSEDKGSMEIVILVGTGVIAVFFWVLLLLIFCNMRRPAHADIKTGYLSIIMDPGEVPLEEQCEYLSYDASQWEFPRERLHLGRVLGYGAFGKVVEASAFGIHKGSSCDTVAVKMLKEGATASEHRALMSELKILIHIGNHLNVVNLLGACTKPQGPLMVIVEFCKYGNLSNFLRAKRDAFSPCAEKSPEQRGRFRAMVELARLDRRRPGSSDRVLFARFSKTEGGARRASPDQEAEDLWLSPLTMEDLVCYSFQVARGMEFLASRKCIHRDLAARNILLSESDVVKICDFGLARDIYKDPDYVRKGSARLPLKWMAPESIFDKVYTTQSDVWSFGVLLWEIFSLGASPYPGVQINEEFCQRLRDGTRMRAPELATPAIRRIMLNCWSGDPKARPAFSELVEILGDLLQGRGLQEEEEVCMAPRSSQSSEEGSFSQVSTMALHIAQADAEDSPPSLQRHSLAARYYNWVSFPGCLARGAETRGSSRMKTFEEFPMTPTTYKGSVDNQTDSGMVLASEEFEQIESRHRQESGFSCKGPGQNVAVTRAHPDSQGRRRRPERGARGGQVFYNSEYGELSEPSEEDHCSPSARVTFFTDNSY
Description: as §1

Sequence of Epidermal growth factor receptor (P00533 whole entry): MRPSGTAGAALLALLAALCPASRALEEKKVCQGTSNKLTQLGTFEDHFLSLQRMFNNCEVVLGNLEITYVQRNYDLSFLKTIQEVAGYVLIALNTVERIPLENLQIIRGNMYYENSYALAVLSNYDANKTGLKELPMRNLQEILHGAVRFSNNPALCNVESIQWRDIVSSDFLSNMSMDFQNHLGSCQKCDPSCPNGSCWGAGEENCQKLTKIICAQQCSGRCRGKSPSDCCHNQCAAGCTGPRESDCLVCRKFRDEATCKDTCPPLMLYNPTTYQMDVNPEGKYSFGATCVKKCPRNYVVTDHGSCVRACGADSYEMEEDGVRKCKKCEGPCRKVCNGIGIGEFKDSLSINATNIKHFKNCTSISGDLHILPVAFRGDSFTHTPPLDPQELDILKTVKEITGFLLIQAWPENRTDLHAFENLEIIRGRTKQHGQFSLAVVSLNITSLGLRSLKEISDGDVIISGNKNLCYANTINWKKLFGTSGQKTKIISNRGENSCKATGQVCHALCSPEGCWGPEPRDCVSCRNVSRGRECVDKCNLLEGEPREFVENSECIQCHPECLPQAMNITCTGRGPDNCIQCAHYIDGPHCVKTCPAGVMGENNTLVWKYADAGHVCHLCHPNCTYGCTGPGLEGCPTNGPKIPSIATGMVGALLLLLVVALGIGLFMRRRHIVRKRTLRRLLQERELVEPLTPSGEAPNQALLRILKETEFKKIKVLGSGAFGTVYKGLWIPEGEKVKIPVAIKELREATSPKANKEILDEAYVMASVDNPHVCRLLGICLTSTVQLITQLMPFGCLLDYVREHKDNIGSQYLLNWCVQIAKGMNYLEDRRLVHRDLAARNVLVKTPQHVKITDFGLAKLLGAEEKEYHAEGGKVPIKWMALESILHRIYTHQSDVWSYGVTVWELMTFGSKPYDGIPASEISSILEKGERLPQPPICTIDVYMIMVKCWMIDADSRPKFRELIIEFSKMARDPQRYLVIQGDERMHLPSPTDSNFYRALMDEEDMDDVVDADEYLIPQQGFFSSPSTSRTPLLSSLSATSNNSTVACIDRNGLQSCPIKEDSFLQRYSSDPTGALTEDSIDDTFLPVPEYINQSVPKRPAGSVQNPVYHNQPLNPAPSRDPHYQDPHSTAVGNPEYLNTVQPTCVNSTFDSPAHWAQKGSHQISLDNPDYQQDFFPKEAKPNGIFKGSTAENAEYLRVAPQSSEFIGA

IC50 [1]: in the range around 33000 nM
IC50 [2]: 1 to 10 nM
IC50 [3]: 10 to 100 nM
Structure (SMILES): NC(=O)c1ccccc1Sc1ccc2c(/C=C/c3cnn(CCCN4CCCC4)c3)n[nH]c2c1 [US20260049071, No. I-44]
